Results on 1 compound are retold here after patent EP0876142B1, “TOPICAL DELIVERY OF DRUGS TO THE LOWER GASTROINTESTINAL TRACT” (Advanced Polymer Systems, Inc., priority 1996, dated 1997).

A short description of this series: In vitro release of hydrocortisone (modified USP dissolution apparatus). It is filed as physicochemical. The note with it: after the first two hours. On the procedure:
The radioactively labelled hydrocortisone was entrapped in two steps using a 5% ethanolic solution at each step. Release of entrapped hydrocortisone at pH 7.5 was measured using a modified USP dissolution apparatus with a basket of 5 µm mesh and a stirring speed of 150 rpm. Sixty percent of the entrapped hydrocortisone was released in the first two hours with a further 15% released over the next six hours. The dissolution rate of free radioactively labelled hydrocortisone was also measured.

`C[C@]12CCC(=O)C=C1CC[C@@H]1[C@@H]2[C@@H](O)C[C@@]2(C)[C@H]1CC[C@]2(O)C(=O)CO` [free hydrocortisone, hydrocortisone]: the total dissolution entry was “total dissolution occurred in another six hours”.
